Patent US20220073536A1 (Rigel Pharmaceuticals, Inc., priority 2003, published 2022)

Tests used:
[1] = test system: cultured human mast cells (CHMC); assay: CHMC low cell density IgE activation: tryptase assay; format: cell-based; conditions: low cell density CHMC, IgE activation, tryptase
Summary of the method: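 Tryptase release, fluorogenic substrate, 30 min RT. Prior anti-IgE stimulation of CHMC, 30 min, 37 °C, after 1 hr preincubation at 1000–1500 cells/well in MT; unstimulated wells received MT.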

[2] = test system: cultured human mast cells (CHMC); assay: CHMC low cell density ionomycin activation: tryptase assay; format: cell-based; conditions: low cell density CHMC, tryptase, 3 pt, read-out: LD Tryptase, CHMC, Iono, 3 pt
[3] = Homo sapiens, Mast cell, 3 pt, read-out: LD Tryptase, CHMC, IgE, 3 pt
[4] = Homo sapiens, Mast cell, 8 pt, read-out: LD Tryptase, CHMC, IgE, 8 pt

CCOC(=O)N1CCN(c2ccc(Nc3ncc(F)c(N(C)C4CCC4)n3)cc2)CC1 [Compound 1148, N4-Cyclobutyl-N2-[4-(4-ethoxycarbonylpiperazino)phenyl]-5-fluoro-N4-methyl-2,4-pyrimidinediamine]
IC50 [1, 3]: < 10 µM
IC50 [1, 4]: < 10 µM
IC50 ([2]; Homo sapiens, Mast cell): > 10 µM

CN(c1nc(Nc2cccc(N3CCOCC3)c2)ncc1F)C1CCC1 [Compound 1149, N4-Cyclobutyl-5-fluoro-N4-methyl-N2-(3-morpholinophenyl)-2,4-pyrimidinediamine]
IC50 [1, 3]: < 10 µM
IC50 ([2]; Homo sapiens, Mast cell): > 10 µM

CC(=O)N1CCN(c2cccc(Nc3ncc(F)c(N(C)C4CCC4)n3)c2)CC1 [Compound 1150, N2-[3-(4-Acetylpiperazino)phenyl]-N4-cyclobutyl-5-fluoro-N4-methyl-2,4-pyrimidinediamine]
IC50 [1, 3]: < 10 µM
IC50 ([2]; Homo sapiens, Mast cell): > 10 µM

CN1CCN(c2cccc(Nc3ncc(F)c(N(C)C4CCC4)n3)c2)CC1 [Compound 1151, N4-Cyclobutyl-5-fluoro-N4-methyl-N2-[3-(4-methylpiperazino)phenyl]-2,4-pyrimidinediamine]
IC50 [1, 3]: < 10 µM
IC50 [1, 4]: < 10 µM
IC50 ([2]; Homo sapiens, Mast cell): > 10 µM

CCOC(=O)N1CCN(c2cccc(Nc3ncc(F)c(N(C)C4CCC4)n3)c2)CC1 [Compound 1152, N4-Cyclobutyl-N2-[3-(4-ethoxycarbonylpiperazino)phenyl]-5-fluoro-N4-methyl-2,4-pyrimidinediamine]
IC50 [1, 3]: < 10 µM
IC50 ([2]; Homo sapiens, Mast cell): > 10 µM

COc1cc(C(N)=O)c(Nc2ncc(F)c(N(C)C3CCC3)n2)cc1OCc1ccccc1 [Compound 1153, N2-(2-Aminocarbonyl-5-benzoxy-4-methoxyphenyl)-N4-cyclobutyl-5-fluoro-N4-methyl-2,4-pyrimidinediamine]
IC50 [1, 3]: > 10 µM
IC50 ([2]; Homo sapiens, Mast cell): > 10 µM

O=C(Nc1ccc(Nc2ncc(F)c(NC3CCC3)n2)cc1)c1ccccc1 [Compound 1154, N2-(4-Benzamidophenyl)-N4-cyclobutyl-5-fluoro-2,4-pyrimidinediamine]
IC50 [1, 3]: < 10 µM
IC50 ([2]; Homo sapiens, Mast cell): > 10 µM

Fc1cnc(Nc2ccc(N3CCOCC3)cc2)nc1NC1CCCC1 [Compound 1155, N4-Cyclopentyl-5-fluoro-N2-(4-morpholinophenyl)-2,4-pyrimidinediamine]
IC50 [1, 3]: < 10 µM
IC50 ([2]; Homo sapiens, Mast cell): > 10 µM

CC(=O)N1CCN(c2ccc(Nc3ncc(F)c(NC4CCCC4)n3)cc2)CC1 [Compound 1156, N2-[4-(4-Acetylpiperazino)phenyl]-N4-cyclopentyl-5-fluoro-2,4-pyrimidinediamine]
IC50 [1, 3]: < 10 µM
IC50 ([2]; Homo sapiens, Mast cell): > 10 µM

CN1CCN(c2ccc(Nc3ncc(F)c(NC4CCCC4)n3)cc2)CC1 [Compound 1157, N4-Cyclopentyl-5-fluoro-N2-[4-(4-methylpiperazino)phenyl]-2,4-pyrimidinediamine]
IC50 [1, 3]: < 10 µM
IC50 ([2]; Homo sapiens, Mast cell): > 10 µM

Fc1cnc(Nc2cccc(N3CCOCC3)c2)nc1NC1CCCC1 [Compound 1158, N4-Cyclopentyl-5-fluoro-N2-(3-morpholinophenyl)-2,4-pyrimidinediamine]
IC50 [1, 3]: < 10 µM
IC50 ([2]; Homo sapiens, Mast cell): > 10 µM

CC(=O)N1CCN(c2cccc(Nc3ncc(F)c(NC4CCCC4)n3)c2)CC1 [Compound 1159, N2-[3-(4-Acetylpiperazino)phenyl]-N4-cyclopentyl-5-fluoro-2,4-pyrimidinediamine]
IC50 [1, 3]: < 10 µM
IC50 ([2]; Homo sapiens, Mast cell): > 10 µM

CN1CCN(c2cccc(Nc3ncc(F)c(NC4CCCC4)n3)c2)CC1 [Compound 1160]
IC50 [1, 3]: < 10 µM
IC50 ([2]; Homo sapiens, Mast cell): > 10 µM

CCOC(=O)N1CCN(c2cccc(Nc3ncc(F)c(NC4CCCC4)n3)c2)CC1 [Compound 1161]
IC50 [1, 3]: < 10 µM
IC50 ([2]; Homo sapiens, Mast cell): > 10 µM

Fc1cnc(Nc2ccc(N3CCOCC3)cc2)nc1NC1CCCCC1 [Compound 1162, N4-Cyclohexyl-5-fluoro-N2-(4-morpholinophenyl)-2,4-pyrimidinediamine]
IC50 [1, 3]: < 10 µM
IC50 ([2]; Homo sapiens, Mast cell): > 10 µM

CC(=O)N1CCN(c2ccc(Nc3ncc(F)c(NC4CCCCC4)n3)cc2)CC1 [Compound 1163, N2-[4-(4-Acetylpiperazino)phenyl]-N4-cyclohexyl-5-fluoro-2,4-pyrimidinediamine]
IC50 [1, 3]: < 10 µM
IC50 ([2]; Homo sapiens, Mast cell): > 10 µM

CCOC(=O)N1CCN(c2ccc(Nc3ncc(F)c(NC4CCCCC4)n3)cc2)CC1 [Compound 1165, N4-Cyclohexyl-N2-[4-(4-ethoxycarbonylpiperazino)phenyl]-5-fluoro-2,4-pyrimidinediamine]
IC50 [1, 3]: < 10 µM
IC50 ([2]; Homo sapiens, Mast cell): < 10 µM

Fc1cnc(Nc2cccc(N3CCOCC3)c2)nc1NC1CCCCC1 [Compound 1166, N4-Cyclohexyl-5-fluoro-N2-(3-morpholinophenyl)-2,4-pyrimidinediamine]
IC50 [1, 3]: < 10 µM
IC50 ([2]; Homo sapiens, Mast cell): > 10 µM

CC(=O)N1CCN(c2cccc(Nc3ncc(F)c(NC4CCCCC4)n3)c2)CC1 [Compound 1167, N2-[3-(4-Acetylpiperazino)phenyl]-N4-cyclohexyl-5-fluoro-2,4-pyrimidinediamine]
IC50 [1, 3]: < 10 µM
IC50 ([2]; Homo sapiens, Mast cell): > 10 µM

CN1CCN(c2cccc(Nc3ncc(F)c(NC4CCCCC4)n3)c2)CC1 [Compound 1168, N4-Cyclohexyl-5-fluoro-N2-[3-(4-methylpiperazino)phenyl]-2,4-pyrimidinediamine]
IC50 [1, 3]: < 10 µM
IC50 ([2]; Homo sapiens, Mast cell): > 10 µM

CCOC(=O)N1CCN(c2cccc(Nc3ncc(F)c(NC4CCCCC4)n3)c2)CC1 [Compound 1169, N4-Cyclohexyl-N2-[3-(4-ethoxycarbonylpiperazino)phenyl]-5-fluoro-2,4-pyrimidinediamine]
IC50 [1, 3]: < 10 µM
IC50 ([2]; Homo sapiens, Mast cell): > 10 µM

O=C(Nc1ccc(Nc2ncc(F)c(NC3CCCC3)n2)cc1)c1ccccc1 [Compound 1170, N2-(4-Benzamidophenyl)-N4-cyclopentyl-5-fluoro-2,4-pyrimidinediamine]
IC50 [1, 3]: < 10 µM
IC50 ([2]; Homo sapiens, Mast cell): > 10 µM

COc1cc(C(N)=O)c(Nc2ncc(F)c(NC3CCCC3)n2)cc1OCc1ccccc1 [Compound 1171, N2-(2-Aminocarbonyl-5-benzoxy-4-methoxyphenyl)-N4-cyclopentyl-5-fluoro-2,4-pyrimidinediamine]
IC50 [1, 3]: < 10 µM
IC50 ([2]; Homo sapiens, Mast cell): > 10 µM

CC(=O)N(C)c1ccc(Nc2ncc(F)c(NC3CCCC3)n2)cc1 [Compound 1172, N2-[4-(N-Acetyl-N-methylamino)phenyl]-N4-cyclopentyl-5-fluoro-2,4-pyrimidinediamine]
IC50 [1, 3]: < 10 µM
IC50 ([2]; Homo sapiens, Mast cell): > 10 µM

Fc1cnc(Nc2cccc(NC3=NCCN3)c2)nc1NC1CCCC1 [Compound 1173, N4-Cyclopentyl-5-fluoro-N2-[3-(N-2-imidazolin-2-yl)aminophenyl]-2,4-pyrimidinediamine]
IC50 [1, 3]: > 10 µM
IC50 ([2]; Homo sapiens, Mast cell): > 10 µM

COc1cc(C(N)=O)c(Nc2ncc(F)c(NC3CCCCC3)n2)cc1OCc1ccccc1 [Compound 1175, N2-(2-Aminocarbonyl-5-benzoxy-4-methoxyphenyl)-N4-cyclohexyl-5-fluoro-2,4-pyrimidinediamine]
IC50 [1, 3]: < 10 µM
IC50 ([2]; Homo sapiens, Mast cell): > 10 µM

CC(=O)N(C)c1ccc(Nc2ncc(F)c(NC3CCCCC3)n2)cc1 [Compound 1176, N2-[4-(N-Acetyl-N-methylamino)phenyl]-N4-cyclohexyl-5-fluoro-2,4-pyrimidinediamine]
IC50 [1, 3]: < 10 µM
IC50 ([2]; Homo sapiens, Mast cell): > 10 µM

Fc1cnc(Nc2cccc(NC3=NCCN3)c2)nc1NC1CCCCC1 [Compound 1177]
IC50 [1, 3]: > 10 µM
IC50 ([2]; Homo sapiens, Mast cell): > 10 µM

Fc1cnc(Nc2cccc(-c3ncco3)c2)nc1Nc1cccc(-c2ncco2)c1 [Compound 1178, N2,N4-Bis[3-(oxazol-2-yl)phenyl]-5-fluoro-2,4-pyrimidinediamine]
IC50 [1, 3]: > 10 µM
IC50 ([2]; Homo sapiens, Mast cell): > 10 µM

CN(c1nc(Nc2cccc(-c3ncco3)c2)ncc1F)C1CCC1 [Compound 1179, N4-Cyclobutyl-5-fluoro-N4-methyl-N2-[3-(oxazol-2-yl)phenyl]-2,4-pyrimidinediamine]
IC50 [1, 3]: < 10 µM
IC50 ([2]; Homo sapiens, Mast cell): > 10 µM

Fc1cnc(Nc2ccc(N3CCOCC3)cc2)nc1N[C@H]1CCN(Cc2ccccc2)C1 [Compound 1180, (S)-N4-(1 -Benzylpyrrolidin-3-yl)-5-fluoro-N2-(4-morpholinophenyl)-2,4-pyrimidinediamine]
IC50 [1, 3]: < 10 µM
IC50 ([2]; Homo sapiens, Mast cell): > 10 µM

CC(=O)N1CCN(c2ccc(Nc3ncc(F)c(N[C@H]4CCN(Cc5ccccc5)C4)n3)cc2)CC1 [Compound 1181, (S)-N2-[4-(4-Acetylpiperazino)phenyl]-N4-(1-benzylpyrrolidin-3-yl)-5-fluoro-2,4-pyrimidinediamine]
IC50 [1, 3]: < 10 µM
IC50 ([2]; Homo sapiens, Mast cell): > 10 µM

CN1CCN(c2ccc(Nc3ncc(F)c(N[C@H]4CCN(Cc5ccccc5)C4)n3)cc2)CC1 [Compound 1182]
IC50 [1, 3]: > 10 µM
IC50 ([2]; Homo sapiens, Mast cell): > 10 µM

CCOC(=O)N1CCN(c2ccc(Nc3ncc(F)c(N[C@H]4CCN(Cc5ccccc5)C4)n3)cc2)CC1 [Compound 1183, (S)-N4-(1-Benzylpyrrolidin-3-yl)-N2-[4-(4-ethoxycarbonylpiperazino)phenyl]-5-fluoro-2,4-pyrimidinediamine]
IC50 [1, 3]: < 10 µM
IC50 ([2]; Homo sapiens, Mast cell): > 10 µM

Fc1cnc(Nc2cccc(N3CCOCC3)c2)nc1N[C@H]1CCN(Cc2ccccc2)C1 [Compound 1184]
IC50 [1, 3]: < 10 µM
IC50 ([2]; Homo sapiens, Mast cell): > 10 µM

CC(=O)N1CCN(c2cccc(Nc3ncc(F)c(N[C@H]4CCN(Cc5ccccc5)C4)n3)c2)CC1 [Compound 1185, (S)-N2-[3-(4-Acetylpiperazino)phenyl]-N4-(benzylpyrrolidin-3-yl)-5-fluoro-2,4-pyrimidinediamine]
IC50 ([1]; 3 pt, read-out: LD Tryptase, CHMC, IgE, 3 pt): < 10 µM
IC50 [2]: > 10 µM

CN1CCN(c2cccc(Nc3ncc(F)c(N[C@H]4CCN(Cc5ccccc5)C4)n3)c2)CC1 [Compound 1186]
IC50 [1, 3]: < 10 µM
IC50 ([2]; Homo sapiens, Mast cell): > 10 µM
